The values that follow come from patent US5183896A, “Derivatives of 1,2,5,6-tetrahydropyridin-3-carboxaldehyde oxime” (Roussel Uclaf, priority 1990, dated 1993).

Read-outs that look alike come from different tables or passages of the source.

Series [1] relates to male mice (CD1 Charles Rivers). In words: Duration of hypothermic action: variations in body temperature. In kind it is in vivo, mouse. On the procedure: (§1) The test is carried out on male mice (CD1 Charles Rivers) weighing 25 to 30 g, which have gone without food for 6 hours.
(§2) The body temperature is noted using a thermocouple placed about […] inside the rectum and connected to an electrical temperature recorder.
(§3) The products are administered by oral or sub-cutaneous route and the temperatures are noted at 0 and 30 minutes, 1 hour, 2 hours and 2 and a half hours after treatment.
(§4) The degree of hypothermia is evaluated as the difference between the treated animals and the control animals and the dose necessary to reduce the body temperature by 1° C. is determined.
The duration of action of the products is determined by using doses which can reduce the temperature by 1.5° C. to 1.7° C.

For series [2], the system named is isolated ileum of a guinea pig. In words: Test of the isolated ileum of a guinea pig (agonist contraction). The settings on record: Cavia porcellus, Tyrode solution, 37° C., read-out: pD2 (negative logarithm of the dose which produces 50% of the maximum effect) (converted). Here is the method: 1Test of the isolated ileum of a guinea pig
Ileum fragments are removed from a guinea-pig killed by decapitation. The isolated ileum is placed in 10 cm^3 of Tyrode solution at 37° C. and aerated by a mixture of oxygen (95%) and carbon dioxide (5%). Contractions caused by the products are recorded using a sensor connected to a polygraph. The products under test are added, at concentrations comprised between 1.10^-3 M and 1.10^-8 M/1.
The products showing a contracturating effect are tested relative to atropine and hexamethonium in order to establish whether the activity is of "muscarinic" or "nicotinic" type.
The agonist activity is expressed in pD2 (negative logarithm of the dose which produces 50% of the maximum effect).

The test system of series [3] is male mice (CD1 Charles Rivers). The experiment in a line: Hypothermic activity: dose reducing body temperature by 1° C. In kind it is in vivo. To be noted: Mus musculus, read-out: Effective dose (-1° C.). Here is the method: as §1, §2, §3, §4
Series [4] deals with male mice (CD1 Charles Rivers). In words: Duration of hypothermic action: variations in body temperature. In kind it is in vivo, mouse. To be noted: 180 min.
The test system of series [5] is male mice (CD1 Charles Rivers). In words: Diarrheic activity, oral. The format is in vivo, mouse. On the procedure:
The test is carried out on male mice (CD1 Charles Rivers) weighing 25 to 30 g, which have gone without food for 6 hours. The product dissolved at 5% in methocel is administered by oral route, using a probang.
The control animals receive only the excipient.
After treatment, the animals are put separately in cages. The bottoms of the cages are covered with blotting paper and are observed at 30, 60, 120 and 180 minute intervals.
The absorbent sheets of paper are changed after each observation.
The consistency of the faeces is evaluated according to the method of Randall and Baruth (Arch. Int. Pharmacodyn. 220, 94, 1976) by following the scale of the following values:
1: slightly soft feces with or without moist ring,
2: slightly soft feces with presence of a well-defined moist circle,
3: soft feces with presence of a large moist circle,
4 feces without consistency with presence of a very large moist circle.
For each product, the dose was noted which caused diarrhoea in 50% of the animals according to the method of Miller and Tainter (Proc. Soc. Exp. Biol. Med., 57 261, 1944).

The nature of the next series: Solubility. The format is physicochemical. The settings on record: for solubility in water: H2O.
A short description of series [6]: Acute toxicity, oral, mortality over 7 days. The settings on record: mouse, in vivo, male mice. On the procedure:
The test is carried out on male mice (CD1 Charles Rivers) weighing 22 to 24 g, which have gone without food for 16 hours. […] The mortality is noted over the 7 days following the treatment.

For series [7], the system named is central cholinergic system. To be noted: cited from earlier work.
Series [8] has as its system patients who have a memory deficiency. The settings on record: intravenous route; cited from earlier work.

Consider `COC(=O)C1=CCCN(C)C1` [Arecoline, HBr, reference compound], for which the “Variation in body temperature” value in series [1] (3.5 mg/kg, sc, 0 min) was -0.1 °C; in series [1] (3.5 mg/kg, sc, 30 min) it was -1.5 °C; in [1] (3.5 mg/kg, sc, 60 min), -0.1 °C; in series [1] (3.5 mg/kg, sc, 120 min), “+0.2 °C”; in series [4] (3.5 mg/kg, sc), “+0.2 °C”. The EC50 in [2] was 126 nM. The ED (-1 C body temperature) turned out to be 3 mg/kg in [3] (SC route) and 190 mg/kg in [3] (oral route). The compound also returned a DE50 (dose which caused diarrhoea in 50% of the animals) in series [5] of 35 mg/kg.
As to `CCN(CC)C(=O)COC(=O)N1CCC=C(C=NOC)C1` [Example 2, (diethylaminocarbonyl) methyl 3-(methoxyiminomethyl)-1,2,5,6-tetrahydropyridine-1-carboxylate], in the series “Solubility”, the “solubility in 2N HCl” value is on record as “insoluble”, the “solubility in 2N NaOH” value is reported as “insoluble” and the solubility in water result is on record as “insoluble”.
Broadly, the LD50 is the dose expected to kill half of the subjects tested. Consider `C=CCN(CC=C)C(=O)COC(=O)N1CCC=C(C=NOC)C1` [Example 3, (di(2-propenyl)-aminocarbon-yl)-methyl 3-(methoxyiminomethyl)-1,2,5,6-tetrahydropyridine-1-carboxylate], for which the “Variation in body temperature” value in series [1] (12 mg/kg, sc, 30 min) is -0.9 °C; in [1] (12 mg/kg, sc, 60 min) it was -1.6 °C; in [1] (12 mg/kg, sc, 120 min), -0.6 °C; in series [1] (15 mg/kg, os, 0 min), “+0.1 °C”; in series [1] (15 mg/kg, os, 30 min) it was -1.3 °C; in series [1] (15 mg/kg, os, 60 min), -1.7 °C. Also, the “Variation in body temperature” value was -0.5 °C in series [1] (15 mg/kg, os, 120 min) and “+0.1 °C” in series [4] (15 mg/kg, os). Moreover, the EC50 in series [2] was > 100000 nM. For the same compound, the ED (-1 C body temperature) in series [3] (SC route) was 8 mg/kg; in series [3] (oral route), 9 mg/kg. The LD50 at 168 h in [6] came to 500 mg/kg. In addition, the DE50 (dose which caused diarrhoea in 50% of the animals) in [5] is > 50 mg/kg. For the same compound, in “Solubility”, the “solubility in 2N HCl” value is recorded as “insoluble”. Besides, in “Solubility”, the “solubility in 2N NaOH” value was “insoluble”. The solubility in water result in the series “Solubility” was “insoluble”.
Turning to `CON=CC1=CCCN(C(=O)OCC(=O)N2CCCCC2)C1` [Example 4, (1-piperidinylcarbonyl)-methyl 3-(methoxyiminomethyl)-1,2,5,6-tetrahydropyridine-1-carboxylate], in “Solubility”, the “solubility in 2N HCl” value is given as “insoluble”, the “solubility in 2N NaOH” value was “insoluble” and the solubility in water result is given as “insoluble”.
Consider `CON=CC1=CCCN(C(=O)OCC(=O)N2CCN(C)CC2)C1` [Example 5, (4 methyl-1-piperazinyl)-carbonylmethyl 3-(methoxyiminomethyl)-1,2,5,6-tetrahydropyridine-1-carboxylate], for which, in the series “Solubility”, the “solubility in 2N HCl” value is “soluble”, the “solubility in 2N NaOH” value is given as “insoluble” and the solubility in water entry is recorded as “soluble”.
Consider `COC(=O)C1=CCCN(C)C1` [arecoline], for which, in series [7] (in vivo), the duration of action entry is reported as “short-term action”. Also, in series [7] (oral route), the “activity by oral route” value was “very weak activity by oral route”. Also, the “effect on patients who have a memory deficiency” value in [8] is “positive effect”.
